Experimental data taken from US11548870B2, “Compounds useful as inhibitors of helios protein” (Bristol-Myers Squibb Company, priority 2019, dated 2023).

Legend:
Helios = target: T1, Helios (Homo sapiens, UniProt Q96SW2+Q9UKS7); test: Helios Cellular Degradation Assay (flow cytometry, Helios-PE antibody staining, 72 h); type: cell-based; conditions: Jurkat cells, 72 h incubation, flow cytometry; for Dmax: Jurkat, read-out: Helios Dmax
T1 construct: fluorescently labelled antibodies against Helios and Ikaros; endogenous in cells; host or cells: Jurkat cells
T1 sequence (Q9UKS7 whole entry): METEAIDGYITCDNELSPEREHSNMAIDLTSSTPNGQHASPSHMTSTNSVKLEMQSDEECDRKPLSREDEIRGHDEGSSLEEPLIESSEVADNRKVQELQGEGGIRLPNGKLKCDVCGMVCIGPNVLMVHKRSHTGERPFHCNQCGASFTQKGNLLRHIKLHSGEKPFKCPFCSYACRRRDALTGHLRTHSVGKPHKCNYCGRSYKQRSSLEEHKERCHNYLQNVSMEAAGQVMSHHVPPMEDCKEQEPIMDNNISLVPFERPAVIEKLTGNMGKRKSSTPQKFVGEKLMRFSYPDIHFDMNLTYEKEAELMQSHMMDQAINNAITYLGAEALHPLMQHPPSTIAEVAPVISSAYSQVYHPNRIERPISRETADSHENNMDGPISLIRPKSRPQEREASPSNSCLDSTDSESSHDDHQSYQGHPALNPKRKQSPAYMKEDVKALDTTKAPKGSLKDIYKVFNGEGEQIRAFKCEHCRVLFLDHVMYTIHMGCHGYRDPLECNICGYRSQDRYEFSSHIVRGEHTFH
T1 sequence (Q96SW2 whole entry): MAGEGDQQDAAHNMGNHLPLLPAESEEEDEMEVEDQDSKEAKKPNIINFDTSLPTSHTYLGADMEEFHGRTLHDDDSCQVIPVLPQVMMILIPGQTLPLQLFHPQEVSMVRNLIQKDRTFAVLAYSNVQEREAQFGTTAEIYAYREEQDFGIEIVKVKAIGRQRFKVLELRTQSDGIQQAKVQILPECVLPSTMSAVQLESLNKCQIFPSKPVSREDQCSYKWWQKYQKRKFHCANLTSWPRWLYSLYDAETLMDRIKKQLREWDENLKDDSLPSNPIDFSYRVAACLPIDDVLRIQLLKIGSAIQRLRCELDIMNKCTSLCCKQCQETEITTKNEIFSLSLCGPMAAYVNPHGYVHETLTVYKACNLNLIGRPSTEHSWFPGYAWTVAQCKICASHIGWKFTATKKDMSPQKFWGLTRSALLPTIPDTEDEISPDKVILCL
T1 sequence (Q16531 whole entry partner): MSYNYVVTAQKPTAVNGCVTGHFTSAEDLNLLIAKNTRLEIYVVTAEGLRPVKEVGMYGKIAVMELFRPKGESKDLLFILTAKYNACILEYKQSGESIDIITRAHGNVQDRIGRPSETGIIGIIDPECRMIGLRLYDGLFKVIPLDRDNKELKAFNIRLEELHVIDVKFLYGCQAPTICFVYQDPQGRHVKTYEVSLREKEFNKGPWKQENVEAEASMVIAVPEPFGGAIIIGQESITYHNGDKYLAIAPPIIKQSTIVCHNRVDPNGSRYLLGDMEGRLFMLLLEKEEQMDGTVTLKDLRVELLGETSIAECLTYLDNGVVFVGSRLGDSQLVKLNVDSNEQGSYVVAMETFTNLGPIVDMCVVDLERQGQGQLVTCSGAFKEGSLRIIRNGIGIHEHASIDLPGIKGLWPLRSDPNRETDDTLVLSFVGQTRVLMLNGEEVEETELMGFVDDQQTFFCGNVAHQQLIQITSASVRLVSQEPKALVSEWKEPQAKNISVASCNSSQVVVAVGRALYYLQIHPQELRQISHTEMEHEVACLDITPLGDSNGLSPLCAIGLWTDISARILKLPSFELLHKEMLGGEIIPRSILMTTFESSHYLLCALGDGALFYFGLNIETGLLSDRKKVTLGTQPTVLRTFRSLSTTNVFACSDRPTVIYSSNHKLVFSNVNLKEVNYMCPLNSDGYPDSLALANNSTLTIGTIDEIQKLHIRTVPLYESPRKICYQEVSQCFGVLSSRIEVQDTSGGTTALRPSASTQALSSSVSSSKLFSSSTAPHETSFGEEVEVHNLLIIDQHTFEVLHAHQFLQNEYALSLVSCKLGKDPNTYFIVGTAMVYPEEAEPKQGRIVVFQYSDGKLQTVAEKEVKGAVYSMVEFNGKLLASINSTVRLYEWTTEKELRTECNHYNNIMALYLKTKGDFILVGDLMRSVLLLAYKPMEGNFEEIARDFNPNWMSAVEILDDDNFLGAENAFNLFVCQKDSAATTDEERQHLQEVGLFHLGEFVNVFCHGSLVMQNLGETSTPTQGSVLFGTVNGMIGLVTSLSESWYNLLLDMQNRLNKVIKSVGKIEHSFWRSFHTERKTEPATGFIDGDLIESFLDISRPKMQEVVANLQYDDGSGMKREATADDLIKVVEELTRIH
Outline: (§1)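 Jurkat cells (80,000/well, RPMI+10% FBS) were exposed to compound for 72 h at 37 °C, then fixed, permeabilized and co-stained for 1 h with Ikaros-Alexa488 and Helios-PE antibodies. Intracellular protein levels were read by flow cytometry.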

Ikaros = target: T2, Ikaros (Homo sapiens, UniProt Q13422); test: Helios Cellular Degradation Assay, Ikaros readout (flow cytometry, Ikaros-Alexa488 antibody staining, 72 h); type: cell-based; conditions: Jurkat cells, 72 h incubation, flow cytometry; for Dmax: Jurkat, read-out: Ikaros Dmax
T2 construct: fluorescently labelled antibodies against Helios and Ikaros; endogenous in cells; host or cells: Jurkat cells
T2 sequence (Q96SW2 whole entry partner): as the sequence (Q96SW2 whole entry) above
T2 sequence (Q16531 whole entry partner): as the sequence (Q16531 whole entry partner) above
T2 sequence (Q13422 whole entry): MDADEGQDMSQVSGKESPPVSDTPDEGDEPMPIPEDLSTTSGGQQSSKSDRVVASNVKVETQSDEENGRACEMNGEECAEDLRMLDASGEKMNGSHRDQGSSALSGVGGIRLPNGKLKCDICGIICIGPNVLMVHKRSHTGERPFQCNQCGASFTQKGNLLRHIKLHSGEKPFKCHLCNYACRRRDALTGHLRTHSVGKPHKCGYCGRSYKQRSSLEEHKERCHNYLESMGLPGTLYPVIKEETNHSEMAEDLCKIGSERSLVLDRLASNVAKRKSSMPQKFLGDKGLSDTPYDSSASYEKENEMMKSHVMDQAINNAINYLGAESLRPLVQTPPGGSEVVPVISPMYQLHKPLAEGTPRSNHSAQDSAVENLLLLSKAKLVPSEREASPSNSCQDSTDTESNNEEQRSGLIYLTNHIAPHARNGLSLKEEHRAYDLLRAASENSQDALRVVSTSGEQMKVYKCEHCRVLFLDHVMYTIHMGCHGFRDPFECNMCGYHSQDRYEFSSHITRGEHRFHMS
Outline: as §1

Row | DC50 (Helios) | Dmax (Helios) | DC50 (Ikaros) | Dmax (Ikaros) | SMILES
1 | 1.83 µM | 56% | > 10 µM | 11% | CN(Cc1cccc(OC(F)(F)F)c1)Cc1ccnc(-c2ccc3c(c2)CN(C2CCC(=O)NC2=O)C3=O)c1 (stereo not shown) [Example 156, 3-(5-(4-((methyl(3-(trifluoromethoxy)benzyl)amino)methyl)pyridin-2-yl)-1-oxoisoindolin-2-yl)piperidine-2,6-dione]
2 | > 10 µM | 38% | > 10 µM | 8% | CN(Cc1ccc(S(C)(=O)=O)cc1)Cc1ccnc(-c2ccc3c(c2)CN(C2CCC(=O)NC2=O)C3=O)c1 (stereo not shown) [Example 157, 3-(5-(4-((methyl(4-(methylsulfonyl)benzyl)amino)methyl)pyridin-2-yl)-1-oxoisoindolin-2-yl)piperidine-2,6-dione]
3 | 0.256 µM | 74% | > 10 µM | 3% | COc1cccc(CN(C)Cc2ccnc(-c3ccc4c(c3)CN(C3CCC(=O)NC3=O)C4=O)c2)c1 (stereo not shown) [Example 158, 3-(5-(4-(((3-methoxybenzyl)(methyl)amino)methyl)pyridin-2-yl)-1-oxoisoindolin-2-yl)piperidine-2,6-dione]
4 | 0.136 µM | 76% | > 10 µM | 25% | CN(Cc1cccnc1)Cc1ccnc(-c2ccc3c(c2)CN(C2CCC(=O)NC2=O)C3=O)c1 (stereo not shown) [Example 159, 3-(5-(4-((methyl(pyridin-3-ylmethyl)amino)methyl)pyridin-2-yl)-1-oxoisoindolin-2-yl)piperidine-2,6-dione]
5 | 0.359 µM | 70% | > 10 µM | 30% | CN(Cc1ccncc1)Cc1ccnc(-c2ccc3c(c2)CN(C2CCC(=O)NC2=O)C3=O)c1 (stereo not shown) [Example 160, 3-(5-(4-((methyl(pyridin-4-ylmethyl)amino)methyl)pyridin-2-yl)-1-oxoisoindolin-2-yl) piperidine-2,6-dione]
6 | 0.067 µM | 83% | > 10 µM | 17% | Cc1ccc(CN(C)Cc2ccnc(-c3ccc4c(c3)CN(C3CCC(=O)NC3=O)C4=O)c2)cc1 (stereo not shown) [Example 161, 3-(5-(4-((methyl(4-methylbenzyl)amino)methyl)pyridin-2-yl)-1-oxoisoindolin-2-yl)piperidine-2,6-dione]
7 | 1.09 µM | 63% | > 10 µM | 2% | CN(Cc1ccnc(-c2ccc3c(c2)CN(C2CCC(=O)NC2=O)C3=O)c1)Cc1ccc2ccccc2c1 (stereo not shown) [Example 162, 3-(5-(4-((methyl(naphthalen-2-ylmethyl)amino)methyl)pyridin-2-yl)-1-oxoisoindolin-2-yl)piperidine-2,6-dione]
8 | 1.02 µM | 56% | > 10 µM | 31% | O=C1CCC(N2Cc3cc(-c4cc(CN(Cc5ccccc5)Cc5ccccc5)ccn4)ccc3C2=O)C(=O)N1 (stereo not shown) [Example 163, 3-(5-{4-[(Dibenzylamino)methyl]pyridin-2-yl}-1-oxo-2,3-dihydro-1H-isoindol-2-yl)piperidine-2,6-dione]
9 | 0.062 µM | 77% | > 10 µM | 10% | CN(Cc1ccccc1)Cc1ccnc(-c2ccc3c(c2)CN(C2CCC(=O)NC2=O)C3=O)c1 (stereo not shown) [Example 164, 3-[5-(4-{[Benzyl(methyl)amino]methyl}pyridin-2-yl)-1-oxo-2,3-dihydro-1H-isoindol-2-yl]piperidine-2,6-dione]
10 | 0.056 µM | 95% | > 10 µM | 14% | O=C1CCC(N2Cc3cc(-c4cc(CN5CCC5)ccn4)ccc3C2=O)C(=O)N1 (stereo not shown) [Example 165, 3-(5-{4-[(Azetidin-1-yl)methyl]pyridin-2-yl}-1-oxo-2,3-dihydro-1H-isoindol-2-yl) piperidine-2,6-dione]
11 | 7.86 µM | 52% | > 10 µM | 7% | O=C1CCC(N2Cc3cc(-c4cc(CN5CCOCC5)ccn4)ccc3C2=O)C(=O)N1 (stereo not shown) [Example 166, 3-(5-{4-[(Morpholin-4-yl)methyl]pyridin-2-yl}-1-oxo-2,3-dihydro-1H-isoindol-2-yl) piperidine-2,6-dione]
12 | > 10 µM | 41% | > 10 µM | 12% | O=C1CCC(N2Cc3cc(-c4cc(CN5CCS(=O)(=O)CC5)ccn4)ccc3C2=O)C(=O)N1 (stereo not shown) [Example 167, 4-({2-[2-(2,6-Dioxopiperidin-3-yl)-1-oxo-2,3-dihydro-1H-isoindol-5-yl]pyridin-4-yl}methyl)-1λ6-thiomorpholine-1,1-dione]
13 | 0.309 µM | 77% | > 10 µM | 20% | COc1ccc(CN(C)Cc2ccnc(-c3ccc4c(c3)CN(C3CCC(=O)NC3=O)C4=O)c2)cn1 (stereo not shown) [Example 168, 3-{5-[4-({[(6-Methoxypyridin-3-yl)methyl](methyl)amino}methyl)pyridin-2-yl]-1-oxo-2,3-dihydro-1H-isoindol-2-yl}piperidine-2,6-dione]
14 | 0.195 µM | 79% | > 10 µM | 16% | CN(Cc1ccnc(-c2ccc3c(c2)CN(C2CCC(=O)NC2=O)C3=O)c1)Cc1cccc2[nH]ncc12 (stereo not shown) [Example 169, 3-(5-(4-((((1H-indazol-4-yl)methyl)(methyl)amino)methyl)pyridin-2-yl)-1-oxoisoindolin-2-yl)piperidine-2,6-dione]
15 | > 10 µM | 22% | > 10 µM | 2% | CN1CCC(N(C)Cc2ccnc(-c3ccc4c(c3)CN(C3CCC(=O)NC3=O)C4=O)c2)CC1 (stereo not shown) [Example 170, 3-(5-(4-((methyl (1-methylpiperidin-4-yl)amino)methyl)pyridin-2-yl)-1-oxoisoindolin-2-yl)piperidine-2,6-dione]
16 | 0.317 µM | 80% | > 10 µM | 4% | CN(CCc1ccccc1)Cc1ccnc(-c2ccc3c(c2)CN(C2CCC(=O)NC2=O)C3=O)c1 (stereo not shown) [Example 171, 3-(5-(4-((methyl(phenethyl)amino)methyl)pyridin-2-yl)-1-oxoisoindolin-2-yl)piperidine-2,6-dione]
17 | 0.075 µM | 90% | > 10 µM | 12% | CN(Cc1ccoc1)Cc1ccnc(-c2ccc3c(c2)CN(C2CCC(=O)NC2=O)C3=O)c1 (stereo not shown) [Example 172, 3-(5-(4-(((furan-3-ylmethyl)(methyl)amino)methyl)pyridin-2-yl)-1-oxoisoindolin-2-yl)piperidine-2,6-dione]
18 | 0.073 µM | 86% | > 10 µM | 0% | CN(Cc1ccnc(-c2ccc3c(c2)CN(C2CCC(=O)NC2=O)C3=O)c1)CC1CC1 (stereo not shown) [Example 173, 3-(5-(4-(((cyclopropylmethyl)(methyl)amino)methyl)pyridin-2-yl)-1-oxoisoindolin-2-yl) piperidine-2,6-dione]
19 | 5.87 µM | 54% | > 10 µM | 20% | CN(Cc1ccnc(-c2ccc3c(c2)CN(C2CCC(=O)NC2=O)C3=O)c1)Cc1cncn1C (stereo not shown) [Example 174, 3-(5-(4-((methyl((1-methyl-1H-imidazol-5-yl)methyl)amino)methyl)pyridin-2-yl)-1-oxoisoindolin-2-yl)piperidine-2,6-dione]
